Assay results: patent US20230286970A1, “NOVEL OXADIAZOLE-BASED SELECTIVE HDAC6 INHIBITORS” (ITALFARMACO S.P.A., priority 2020, published 2023)

Tests used:
[1] = Stability in human plasma; settings: after 4 hours, 37° C.
Description: In order to evaluate the stability to circulating enzymes, test compounds were incubated in human and rat plasma at 37° C. in a thermostated oscillating bath. Each test compound was incubated at μM concentration (50 μM when the samples were analysed by UV/HPLC, 1 or 2 μM when the samples were analysed by LC-MS/MS) for 0, 15, 30 minutes and 1, 2 and 4 hours. The reaction was stopped placing samples on ice bath and adding acidified acetonitrile. After centrifugation (10 minutes at 14000 rpm) an aliquot of the supernatant was diluted with water, filtered with 0.45 μm regenerated cellulose syringe filters and injected in HPLC-UV or in LC-MS/MS. The percentage of the remaining amount at the various incubation times with respect to the initial amount were calculated. The half-life in plasma was also calculated.

[2] = Stability to Phase I metabolism in rat S9 liver fraction; settings: after 90 minutes, 37° C.
Stability in rat plasma = settings: after 4 hours, 37° C.
recombinant human HDAC1 = recombinant human HDAC1 (Homo sapiens (Human), UniProt Q13547); assay: Enzymatic screening, HDAC1 inhibition (fluorogenic FdL_G substrate); assay type: biochemical
recombinant human HDAC1, sequence (Q13547 whole entry): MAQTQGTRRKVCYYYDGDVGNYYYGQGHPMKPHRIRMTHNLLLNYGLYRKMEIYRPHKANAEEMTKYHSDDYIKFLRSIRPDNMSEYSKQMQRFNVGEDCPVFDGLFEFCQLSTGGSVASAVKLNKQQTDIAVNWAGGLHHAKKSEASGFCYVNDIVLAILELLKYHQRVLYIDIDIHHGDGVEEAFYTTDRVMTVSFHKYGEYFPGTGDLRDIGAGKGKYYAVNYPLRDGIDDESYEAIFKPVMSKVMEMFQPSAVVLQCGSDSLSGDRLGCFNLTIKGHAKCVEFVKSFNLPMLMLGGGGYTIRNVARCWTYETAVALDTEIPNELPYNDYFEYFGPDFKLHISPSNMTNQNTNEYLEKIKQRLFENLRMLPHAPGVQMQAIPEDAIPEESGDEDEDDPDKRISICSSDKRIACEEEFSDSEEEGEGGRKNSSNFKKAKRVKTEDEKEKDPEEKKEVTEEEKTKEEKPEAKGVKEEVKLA
How it was run: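 Recombinant human HDAC1 inhibition was measured fluorometrically using the FLUOR DE LYS-Green (FdL_G) substrate. Compounds at 8 doses (1% DMSO final) in Tris-HCl pH 8 buffer with NaCl, Tween-20 and glycerol were preincubated in triplicate with enzyme and 1 mg/mL BSA, then given substrate. Developer I plus 2 μM TSA was added, and fluorescence read after 25 minutes in the dark.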

recombinant human HDAC6 = recombinant human HDAC6 (Homo sapiens (Human), UniProt Q9UBN7); assay: Enzymatic screening, HDAC6 inhibition (fluorogenic FdL_G substrate); assay type: biochemical
recombinant human HDAC6, sequence (Q9UBN7 whole entry): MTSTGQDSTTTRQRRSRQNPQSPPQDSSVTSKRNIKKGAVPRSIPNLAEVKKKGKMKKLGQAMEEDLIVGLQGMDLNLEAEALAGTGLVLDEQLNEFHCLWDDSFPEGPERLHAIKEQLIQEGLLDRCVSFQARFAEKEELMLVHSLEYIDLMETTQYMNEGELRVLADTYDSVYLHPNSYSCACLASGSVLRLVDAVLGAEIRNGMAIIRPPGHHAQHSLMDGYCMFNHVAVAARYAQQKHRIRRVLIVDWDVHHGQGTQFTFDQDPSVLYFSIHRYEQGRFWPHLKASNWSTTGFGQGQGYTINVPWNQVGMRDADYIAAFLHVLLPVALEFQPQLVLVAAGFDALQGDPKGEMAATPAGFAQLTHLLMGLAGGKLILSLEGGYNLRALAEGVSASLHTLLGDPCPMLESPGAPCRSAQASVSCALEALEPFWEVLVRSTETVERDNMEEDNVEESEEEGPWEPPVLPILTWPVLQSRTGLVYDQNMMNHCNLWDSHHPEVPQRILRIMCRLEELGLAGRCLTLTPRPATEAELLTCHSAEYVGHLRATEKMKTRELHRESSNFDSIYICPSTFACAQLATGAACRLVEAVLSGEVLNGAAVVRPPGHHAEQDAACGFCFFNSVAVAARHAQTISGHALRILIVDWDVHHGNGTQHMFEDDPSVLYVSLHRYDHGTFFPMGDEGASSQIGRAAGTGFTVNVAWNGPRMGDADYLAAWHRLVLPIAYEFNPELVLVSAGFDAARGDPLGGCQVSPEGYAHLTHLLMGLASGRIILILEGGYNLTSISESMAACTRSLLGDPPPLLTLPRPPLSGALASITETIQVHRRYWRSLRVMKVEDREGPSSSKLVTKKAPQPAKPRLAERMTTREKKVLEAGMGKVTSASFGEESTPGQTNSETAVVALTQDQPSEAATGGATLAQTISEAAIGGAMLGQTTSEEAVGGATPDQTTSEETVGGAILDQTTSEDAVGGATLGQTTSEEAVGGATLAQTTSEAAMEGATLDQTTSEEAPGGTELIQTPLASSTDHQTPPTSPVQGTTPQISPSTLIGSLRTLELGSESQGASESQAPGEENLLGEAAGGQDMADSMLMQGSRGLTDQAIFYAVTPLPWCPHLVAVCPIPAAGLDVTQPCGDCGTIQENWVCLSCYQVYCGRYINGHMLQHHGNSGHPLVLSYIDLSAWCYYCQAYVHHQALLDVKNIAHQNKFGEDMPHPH
How it was run: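 Enzyme was preincubated with compound (8 doses, triplicate, 1% DMSO) in 25 mM Tris-HCl pH 8, 130 mM NaCl, 0.05% Tween-20, 10% glycerol, with BSA. A FLUOR DE LYS-Green substrate was then added, and fluorescence was read after developer plus 2 μM TSA.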

[3] = Stability to Phase I metabolism in human S9 liver fraction; settings: after 90 minutes, 37° C.
[4] = tested on: α-tubulin acetylation in 697 cell line; assay: In vitro α-tubulin acetylation in 697 cell line (ELISA); assay type: cell-based; settings: 16 hours, read-out: fold increase @ 1 uM TubAc (ratio of acetylated tubulin and total tubulin towards control)
Description: The in vitro α-tubulin acetylation determination was evaluated on B 697 promyelocytic cell line.
The test molecules were diluted from 20 mM stock solution in DMSO with RPMI 10% FCS+0.01% DMSO medium at 20× concentration compared to the final concentration, added to the cells (15×10^6 cells in a total volume of 30 mL in RPMI medium 10% FCS+0.01% DMSO) to obtain the final concentrations of 1000, 333, 111, 37 nM and incubated at 37° C., 5% CO2 for 16 hours.
At the end of the incubation period, 5×10^6 cells were taken from each sample, centrifuged for 5 minutes at 1100 rpm and washed in 0.9% NaCl at 4° C. The resulting pellet was lysed by treating at 4° C. for 30 minutes with 150 μl of Complete Lysis-M buffer containing protease inhibitors (Complete Lysis-M Roche+Complete Tablets, Mini Easypack, cat: 4719956001) and phosphatase inhibitor cocktails (PhosStop Easypack, Roche, cat: 4906837001), then centrifuged 10 minutes at 14,000 rpm (20817×g). 0.3 μg of supernatant (total protein extract) were diluted in 100 μl of 1×PBS and immobilized in Maxisorp F96 NUN-IMMUNO Plate (Nunc MaxiSorp flat-bottom, Nunc, cat: 442404) at room temperature overnight. Plates were washed twice with Wash Buffer (PBS1×+0.005% tween 20) and saturated for 1 hour at room temperature with 300 μL of 1×PBS containing 10% FCS. After washing twice with Wash Buffer, the plates were incubated for two hours at room temperature in the presence of anti-acetylated-α-tubulin antibody (Monoclonal Anti-acetylated-tubulin clone 6-11B-1, mouse ascites fluid, Sigma, cat: T6793), 100 μl/well diluted 1:1000 in 1×PBS containing 10% FCS) or with total anti-α-tubulin antibody (Monoclonal Anti-alpha-tubulin produced in mouse, Sigma, cat: T6074). Following washing of the pates 5 times with Wash Buffer the secondary antibody conjugated with the enzyme HRP (Goat anti-Mouse IgG, IgM, IgA (H+L), Thermo Fisher Scientific, cat: A10668), diluted 1:1000 in 1×PBS+10% FBS was added at the volume of 100 μl/well.
After washing 4 times, 100 μl/well of TMB substrate kit was added for 10 minutes at room temperature in the dark. The reaction was stopped by adding 50 μl of 2N H2SO4. The plates were read at Multiskan Spectrum spectrophotometer at a wavelength of 450 nm.
The degree of acetylation was calculated by dividing the absorbance obtained for acetylated α-tubulin by the absorbance of total tubulin.
The results of tubulin acetylation, expressed as fold increase of ratio of acetylated α-tubulin/total α-tubulin, of each sample relative to the control sample (untreated) are summarized in table 6.

| residual percentage in HUMAN PLASMA [1] | residual percentage in RAT S9 FRACTION [2] | residual percentage in RAT PLASMA (Stability in rat plasma) | IC50 (recombinant human HDAC1) | IC50 (recombinant human HDAC6) | residual percentage in HUMAN S9 FRACTION [3] | Compound | fold induction at 1 µM [4] |
| --- | --- | --- | --- | --- | --- | --- | --- |
| 83% | 97% | 83% | > 200000 nM | 11 nM | 95% | O=C1Nc2ccc(-c3cn(Cc4ccc(-c5nnc(C(F)F)o5)cn4)nn3)cc2C12CCNC2 (single isomer, unassigned) [compound 274, 5-(1-((5-(5-(difluoromethyl)-1,3,4-oxadiazol-2-yl)pyridin-2-yl)methyl)-1H-1,2,3-triazol-4-yl)spiro[indoline-3,3′-pyrrolidin]-2-one] | 12 |
| 91% | 89% | 82% | > 200000 nM | 293 nM | 88% | CCC[C@@H](c1ccc(-c2nnc(C(F)F)o2)cc1)n1cc(-c2ccc(N)nc2)nn1 [compound 250, (S)-5-(1-(1-(4-(5-(difluoromethyl)-1,3,4-oxadiazol-2-yl)phenyl)butyl)-1H-1,2,3-triazol-4-yl)pyridin-2-amine] | – |
| 80% | 92% | 94% | > 200000 nM | 19 nM | 93% | O=C(Nc1cccc(-c2cn(Cc3ccc(-c4nnc(C(F)F)o4)cn3)cn2)c1)N1CCOCC1 [compound 264, N-(3-(1-((5-(5-(difluoromethyl)-1,3,4-oxadiazol-2-yl)pyridin-2-yl)methyl)-1H-imidazol-4-yl)phenyl)morpholine-4-carboxamide] | – |
| 80% | 69% | 71% | > 200000 nM | 15 nM | 81% | FC(F)c1nnc(-c2ccc(Cn3cc(-c4ccc(NC5=NCCN5)cc4)cn3)cc2)o1 [compound 269, N-(4-(1-(4-(5-(difluoromethyl)-1,3,4-oxadiazol-2-yl)benzyl)-1H-pyrazol-4-yl)phenyl)-4,5-dihydro-1H-imidazol-2-amine] | – |
| 78% | 9% | 86% | > 200000 nM | 355 nM | 54% | FC(F)c1nnc(-c2ccc(Cn3nnnc3-c3csc4ccccc34)cc2)o1 [compound 288, 2-(4-((5-(benzo[b]thiophen-3-yl)-1H-tetrazol-1-yl)methyl)phenyl)-5-(difluoromethyl)-1,3,4-oxadiazole] | – |

Second part, the compound before the results:

| Compound | residual percentage in HUMAN PLASMA [1] | residual percentage in RAT S9 FRACTION [2] | residual percentage in RAT PLASMA (Stability in rat plasma) | IC50 (recombinant human HDAC1) | IC50 (recombinant human HDAC6) | residual percentage in HUMAN S9 FRACTION [3] | fold induction at 1 µM [4] |
| --- | --- | --- | --- | --- | --- | --- | --- |
| Nc1nc2ccc(-c3cn(Cc4ccc(-c5nnc(C(F)F)o5)cc4)nn3)cc2s1 [compound 14, 6-(1-(4-(5-(difluoromethyl)-1,3,4-oxadiazol-2-yl)benzyl)-1H-1,2,3-triazol-4-yl)benzo[d]thiazol-2-amine] | 72% | 95% | 83% | – | – | 93% | 19 |
| Nc1ccc(-c2cn(Cc3ccc(-c4nnc(C(F)F)o4)c(F)c3)nn2)cn1 [compound 15, 5-(1-(4-(5-(difluoromethyl)-1,3,4-oxadiazol-2-yl)-3-fluorobenzyl)-1H-1,2,3-triazol-4-yl)pyridin-2-amine] | 81% | 79% | 72% | – | – | 91% | 16 |
| NC(=O)c1cccc(-c2nnn(Cc3ccc(-c4nnc(C(F)F)o4)cn3)n2)c1 [compound 29, 3-(2-((5-(5-(difluoromethyl)-1,3,4-oxadiazol-2-yl)pyridin-2-yl)methyl)-2H-tetrazol-5-yl)benzamide] | – | – | – | – | – | – | 15 |
| CC(c1ccc(-c2nnc(C(F)F)o2)c(F)c1)n1cc(-c2ccc(N)nc2)nn1 (stereo not drawn) [compound 186, 5-(1-(1-(4-(5-(difluoromethyl)-1,3,4-oxadiazol-2-yl)-3-fluorophenyl)ethyl)-1H-1,2,3-triazol-4-yl)pyridin-2-amine] | 94% | 90% | 86% | > 200000 nM | 98 nM | 88% | – |
| FC(F)c1nnc(-c2ccc(Cn3nnc(-c4csc5ccccc45)n3)cc2)o1 [compound 207, 2-(4-((5-(benzo[b]thiophen-3-yl)-2H-tetrazol-2-yl)methyl)phenyl)-5-(difluoromethyl)-1,3,4-oxadiazole] | 91% | 0% | 70% | 999000 nM | 129 nM | 72% | – |
| Nc1ccc(-c2cnn(Cc3ccc(-c4nnc(C(F)F)o4)cc3)c2)cn1 [compound 211, 5-(1-(4-(5-(difluoromethyl)-1,3,4-oxadiazol-2-yl)benzyl)-1H-pyrazol-4-yl)pyridin-2-amine] | 91% | 80% | 89% | > 200000 nM | 147 nM | 63% | – |
| CCCCC(c1ccc(-c2nnc(C(F)F)o2)cc1)n1cc(-c2ccc(N)nc2)nn1 (stereo not drawn) [compound 235, 5-(1-(1-(4-(5-(difluoromethyl)-1,3,4-oxadiazol-2-yl)phenyl)pentyl)-1H-1,2,3-triazol-4-yl)pyridin-2-amine] | 90% | 63% | 84% | > 200000 nM | 202 nM | 92% | – |
| Nc1ccc(-c2nc(Cc3ccc(-c4nnc(C(F)F)o4)cc3)no2)cn1 [compound 247, 5-(3-(4-(5-(difluoromethyl)-1,3,4-oxadiazol-2-yl)benzyl)-1,2,4-oxadiazol-5-yl)pyridin-2-amine] | 99% | 65% | 81% | > 200000 nM | 272 nM | 98% | – |
